Measured values as given in patent US20090311217A1, “3-SUBSTITUTED-1H-INDOLE COMPOUNDS, THEIR USE AS MTOR KINASE AND PI3 KINASE INHIBITORS, AND THEIR SYNTHESES” (priority 2008, published 2009).
Like-named read-outs stand apart in the source and are kept apart here.

Tests used:
[1] = molecular target: PI3K-gamma (Homo sapiens, UniProt P48736); test: PI3K-gamma fluorescence polarization assay; format: biochemical; conditions: PI3Kγ Avg. IC50
Method in brief: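 Reactions in 5 mM HEPES pH 7, 2.5 mM MgCl2, 25 μM ATP with 2.5 μM diC8-PI(4,5)P2 and 5 ng enzyme, 1 h at 25° C, then EDTA quench. Product detected by FP using GST-GRP1 PH domain (100 nM) and BODIPY-TMR-IP4 tracer (5 nM); final DMSO 0.8%.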

[2] = molecular target: PI3K-alpha (Homo sapiens, UniProt P42336); test: PI3K-alpha fluorescence polarization assay; format: biochemical
Sequence of PI3K-alpha (P42336 whole entry, species assumed): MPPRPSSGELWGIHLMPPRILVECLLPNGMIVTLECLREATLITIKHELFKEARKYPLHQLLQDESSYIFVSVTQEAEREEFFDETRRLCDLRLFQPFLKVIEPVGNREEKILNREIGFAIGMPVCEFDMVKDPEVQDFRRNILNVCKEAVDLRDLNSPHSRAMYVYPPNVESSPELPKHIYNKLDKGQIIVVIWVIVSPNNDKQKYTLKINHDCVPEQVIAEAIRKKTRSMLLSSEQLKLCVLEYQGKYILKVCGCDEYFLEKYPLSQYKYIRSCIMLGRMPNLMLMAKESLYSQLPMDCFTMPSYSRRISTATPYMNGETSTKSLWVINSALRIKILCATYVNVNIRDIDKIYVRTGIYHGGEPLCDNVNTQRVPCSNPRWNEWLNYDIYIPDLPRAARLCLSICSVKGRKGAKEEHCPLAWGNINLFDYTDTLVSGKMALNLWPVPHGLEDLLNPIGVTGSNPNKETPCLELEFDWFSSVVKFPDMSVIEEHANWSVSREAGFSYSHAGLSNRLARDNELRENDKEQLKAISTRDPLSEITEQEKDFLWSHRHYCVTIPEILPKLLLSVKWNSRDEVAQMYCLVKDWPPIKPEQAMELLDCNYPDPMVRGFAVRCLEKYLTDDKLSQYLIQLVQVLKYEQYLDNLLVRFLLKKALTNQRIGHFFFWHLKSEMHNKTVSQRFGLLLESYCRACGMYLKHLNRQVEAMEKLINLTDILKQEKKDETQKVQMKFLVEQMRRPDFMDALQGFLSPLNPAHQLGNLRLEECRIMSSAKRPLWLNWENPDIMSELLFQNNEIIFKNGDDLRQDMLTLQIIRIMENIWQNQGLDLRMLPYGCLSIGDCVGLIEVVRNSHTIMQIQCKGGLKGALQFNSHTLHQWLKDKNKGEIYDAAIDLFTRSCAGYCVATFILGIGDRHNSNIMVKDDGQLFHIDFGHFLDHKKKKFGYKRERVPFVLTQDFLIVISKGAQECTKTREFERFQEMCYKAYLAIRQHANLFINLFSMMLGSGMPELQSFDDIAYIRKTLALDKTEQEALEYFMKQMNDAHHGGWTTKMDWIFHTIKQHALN
Sequence of PI3K-alpha (P27986 whole entry partner, species assumed): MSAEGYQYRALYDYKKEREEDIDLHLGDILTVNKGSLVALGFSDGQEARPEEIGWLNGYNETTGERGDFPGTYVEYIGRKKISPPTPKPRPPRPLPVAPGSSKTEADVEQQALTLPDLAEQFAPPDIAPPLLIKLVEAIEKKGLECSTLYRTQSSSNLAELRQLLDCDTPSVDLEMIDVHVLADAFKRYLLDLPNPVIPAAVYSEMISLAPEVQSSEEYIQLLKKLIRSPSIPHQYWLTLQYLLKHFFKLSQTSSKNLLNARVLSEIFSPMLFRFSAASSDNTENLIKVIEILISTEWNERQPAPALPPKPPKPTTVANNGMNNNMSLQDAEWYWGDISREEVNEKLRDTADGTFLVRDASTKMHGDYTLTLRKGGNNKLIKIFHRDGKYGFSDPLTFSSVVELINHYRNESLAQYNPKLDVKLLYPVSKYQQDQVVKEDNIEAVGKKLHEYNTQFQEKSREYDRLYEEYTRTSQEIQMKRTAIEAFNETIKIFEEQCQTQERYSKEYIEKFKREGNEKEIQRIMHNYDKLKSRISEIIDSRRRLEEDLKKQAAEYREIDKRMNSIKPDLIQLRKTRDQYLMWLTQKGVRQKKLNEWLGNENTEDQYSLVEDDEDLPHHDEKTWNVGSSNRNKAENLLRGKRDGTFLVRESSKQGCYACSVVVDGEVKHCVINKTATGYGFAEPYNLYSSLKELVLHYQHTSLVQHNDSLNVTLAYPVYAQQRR

Sequence of PI3K-gamma (P48736 whole entry, species assumed, the tested form may be a part): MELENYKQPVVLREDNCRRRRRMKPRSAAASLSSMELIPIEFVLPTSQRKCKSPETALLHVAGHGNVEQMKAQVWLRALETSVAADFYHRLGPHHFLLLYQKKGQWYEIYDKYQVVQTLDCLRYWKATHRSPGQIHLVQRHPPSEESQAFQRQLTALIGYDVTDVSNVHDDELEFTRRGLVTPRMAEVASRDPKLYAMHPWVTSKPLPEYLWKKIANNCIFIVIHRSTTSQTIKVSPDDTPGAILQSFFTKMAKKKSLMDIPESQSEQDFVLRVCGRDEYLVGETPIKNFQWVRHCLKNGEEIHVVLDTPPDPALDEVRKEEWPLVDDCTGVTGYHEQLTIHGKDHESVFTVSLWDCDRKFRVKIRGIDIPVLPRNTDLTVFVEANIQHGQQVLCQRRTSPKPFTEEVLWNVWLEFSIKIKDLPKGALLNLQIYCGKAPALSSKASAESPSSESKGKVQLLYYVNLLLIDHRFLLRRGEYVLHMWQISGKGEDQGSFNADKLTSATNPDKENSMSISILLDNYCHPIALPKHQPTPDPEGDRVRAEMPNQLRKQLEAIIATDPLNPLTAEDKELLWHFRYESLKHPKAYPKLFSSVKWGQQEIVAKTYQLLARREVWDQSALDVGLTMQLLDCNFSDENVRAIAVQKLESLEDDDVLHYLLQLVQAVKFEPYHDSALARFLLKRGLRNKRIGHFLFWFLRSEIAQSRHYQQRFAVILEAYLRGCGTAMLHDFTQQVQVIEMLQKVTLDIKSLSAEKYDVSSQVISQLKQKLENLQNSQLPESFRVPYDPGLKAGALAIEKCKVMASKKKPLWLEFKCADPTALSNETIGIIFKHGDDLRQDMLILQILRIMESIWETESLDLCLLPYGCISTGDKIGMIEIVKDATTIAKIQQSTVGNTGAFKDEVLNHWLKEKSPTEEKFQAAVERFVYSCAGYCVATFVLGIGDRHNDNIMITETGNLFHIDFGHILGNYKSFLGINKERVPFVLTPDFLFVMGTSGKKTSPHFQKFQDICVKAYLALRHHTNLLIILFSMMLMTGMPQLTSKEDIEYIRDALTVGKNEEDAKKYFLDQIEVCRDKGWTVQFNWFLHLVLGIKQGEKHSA

Compound	IC50 [1]	IC50 ([2]; read-out: PI3Kα Avg. IC50)	IC50 ([2]; PI3Kα Avg. IC50)
CNC(=O)Nc1ccc2c(c1)C(=O)/C(=C/c1c(C(=O)N3CCN(C)CC3)[nH]c3ccc(OC)cc13)O2 [Compound 601, 1-[(2Z)-2-({5-methoxy-2-[(4-methylpiperazin-1-yl)carbonyl]-1H-indol-3-yl}methylidene)-3-oxo-2,3-dihydro-1-benzofuran-5-yl]-3-methylurea]	77 nM	8 nM	
CNC(=O)Nc1ccc2c(c1)C(=O)/C(=C/c1c(C(=O)N(C)CCN(C)C)[nH]c3ccc(OC)cc13)O2 [Compound 602, N-[2-(dimethylamino)ethyl]-5-methoxy-N-methyl-3-[(Z)-{5-[(methylcarbamoyl)amino]-3-oxo-1-benzofuran-2(3H)-ylidene}methyl]-1H-indole-2-carboxamide]	316 nM	40.5 nM	
CNC(=O)Nc1ccc2c(c1)C(=O)/C(=C/c1c(C(=O)NC)[nH]c3ccc(OC)cc13)O2 [Compound 603, 5-methoxy-N-methyl-3-[(Z)-{5-[(methylcarbamoyl)amino]-3-oxo-1-benzofuran-2(3H)-ylidene}methyl]-1H-indole-2-carboxamide]	102 nM	6.5 nM	
CNC(=O)Nc1ccc2c(c1)C(=O)/C(=C/c1c(C#N)[nH]c3ccc(OC)cc13)O2 [Compound 604, 1-{(2Z)-2-[(2-cyano-5-methoxy-1H-indol-3-yl)methylidene]-3-oxo-2,3-dihydro-1-benzofuran-5-yl}-3-methylurea]	> 10000 nM	10.5 nM	
CNC(=O)Nc1ccc2c(c1)C(=O)/C(=C/c1c(C(=O)NCCN(C)C)[nH]c3ccc(OC)cc13)O2 [Compound 605, N-[2-(dimethylamino)ethyl]-5-methoxy-3-[(Z)-{5-[(methylcarbamoyl)amino]-3-oxo-1-benzofuran-2(3H)-ylidene}methyl]-1H-indole-2-carboxamide]	315 nM	19 nM	
CNC(=O)Nc1ccc2c(c1)C(=O)/C(=C/c1c(C3=CCNCC3)[nH]c3ccc(OC)cc13)O2 [Compound 606, 1-[(2Z)-2-{[5-methoxy-2-(1,2,3,6-tetrahydropyridin-4-yl)-1H-indol-3-yl]methylidene}-3-oxo-2,3-dihydro-1-benzofuran-5-yl]-3-methylurea]	113 nM	8 nM	
CNC(=O)Nc1ccc2c(c1)C(=O)/C(=C/c1c(C3=CCNCC3)n(CCN3CCN(C)CC3)c3ccc(OC)cc13)O2 [Compound 607, 1-[(2Z)-2-({5-methoxy-1-[2-(4-methylpiperazin-1-yl)ethyl]-2-(1,2,3,6-tetrahydropyridin-4-yl)-1H-indol-3-yl}methylidene)-3-oxo-2,3-dihydro-1-benzofuran-5-yl]-3-methylurea]	4220 nM	4.5 nM	
CNC(=O)Nc1ccc2c(c1)C(=O)/C(=C/c1c(C)n(CCN3CCOCC3)c3ccc(OC)cc13)O2 [Compound 608, 1-[(2Z)-2-{[5-methoxy-2-methyl-1-(2-morpholin-4-ylethyl)-1H-indol-3-yl]methylidene}-3-oxo-2,3-dihydro-1-benzofuran-5-yl]-3-methylurea]	136 nM	15.5 nM	
CNC(=O)Nc1ccc2c(c1)C(=O)/C(=C/c1c(C)n(CCN3CCCCC3)c3ccc(OC)cc13)O2 [Compound 609, 1-[(2Z)-2-{[5-methoxy-2-methyl-1-(2-piperidin-1-ylethyl)-1H-indol-3-yl]methylidene}-3-oxo-2,3-dihydro-1-benzofuran-5-yl]-3-methylurea]	446 nM	15 nM	
CNC(=O)Nc1ccc2c(c1)C(=O)/C(=C/c1c(C)n(CCN(C)C)c3ccc(OC)cc13)O2 [Compound 610, 1-[(2Z)-2-({1-[2-(dimethylamino)ethyl]-5-methoxy-2-methyl-1H-indol-3-yl}methylidene)-3-oxo-2,3-dihydro-1-benzofuran-5-yl]-3-methylurea]	106 nM	11.5 nM	
CNC(=O)Nc1ccc2c(c1)C(=O)/C(=C/c1c(C)n(CCN3CCCC3)c3ccc(OC)cc13)O2 [Compound 611, 1-[(2Z)-2-{[5-methoxy-2-methyl-1-(2-pyrrolidin-1-ylethyl)-1H-indol-3-yl]methylidene}-3-oxo-2,3-dihydro-1-benzofuran-5-yl]-3-methylurea]	712 nM	19.5 nM	
CNC(=O)Nc1ccc2c(c1)C(=O)/C(=C/c1c(CN(C)C)[nH]c3ccc(OC)cc13)O2 [Compound 612, 1-[(2Z)-2-({2-[(dimethylamino)methyl]-5-methoxy-1H-indol-3-yl}methylidene)-3-oxo-2,3-dihydro-1-benzofuran-5-yl]-3-methylurea]	121 nM	15.5 nM	
CNC(=O)Nc1ccc2c(c1)C(=O)/C(=C/c1c(CN(C)CCN(C)C)[nH]c3ccc(OC)cc13)O2 [Compound 613, 1-[(2Z)-2-{[2-({[2-(dimethylamino)ethyl](methyl)amino}methyl)-5-methoxy-1Hindol-3-yl]methylidene}-3-oxo-2,3-dihydro-1-benzofuran-5-yl]-3-methylurea]	154 nM	12.5 nM	
CNC(=O)Nc1ccc2c(c1)C(=O)/C(=C/c1c(-c3nc(C(C)C)no3)n(CCN3CCN(C)CC3)c3ccc(OC)cc13)O2 [Compound 614, 1-[(2Z)-2-({5-methoxy-2-[3-(1-methylethyl)-1,2,4-oxadiazol-5-yl]-1-[2-(4-methylpiperazin-1-yl)ethyl]-1H-indol-3-yl}methylidene)-3-oxo-2,3-dihydro-1-benzofuran-5-yl]-3-methylurea]	355 nM	3.5 nM	
CNC(=O)Nc1ccc2c(c1)C(=O)/C(=C/c1c(CN3CCN(C)CC3)[nH]c3ccc(OC)cc13)O2 [Compound 615, 1-[(2Z)-2-({5-methoxy-2-[(4-methylpiperazin-1-yl)methyl]-1H-indol-3-yl}methylidene)-3-oxo-2,3-dihydro-1-benzofuran-5-yl]-3-methylurea]	136 nM	9.5 nM	
CNC(=O)Nc1ccc2c(c1)C(=O)/C(=C/c1c(-c3c(C)nn(C)c3C)[nH]c3ccc(OC)cc13)O2 [Compound 616, 1-[(2Z)-2-{[5-methoxy-2-(1,3,5-trimethyl-1H-pyrazol-4-yl)-1H-indol-3-yl]methylidene}-3-oxo-2,3-dihydro-1-benzofuran-5-yl]-3-methylurea]	4.8 nM	0.4 nM	
CCn1c(C)c(/C=C2\Oc3ccc(NC(=O)Nc4ccc(N(C)C)cc4)cc3C2=O)c2cc(OC)ccc21 [Compound 681, 1-[4-(dimethylamino)phenyl]-3-{(2Z)-2-[(1-ethyl-5-methoxy-2-methyl-1H-indol-3-yl)methylidene]-3-oxo-2,3-dihydro-1-benzofuran-5-yl}urea]	69.5 nM	11.5 nM	
Cc1[nH]c2ccc(Br)cc2c1/C=C1\Oc2c(ccc(O)c2O)C1=O [Example 66, (2Z)-2-[(5-bromo-2-methyl-1H-indol-3-yl)methylene]-6,7-dihydroxy-1-benzofuran-3(2H)-one]	2910 nM	232 nM	
O=C1/C(=C/c2c(-c3ccc(F)cc3)[nH]c3ccccc23)Oc2c(O)cccc21 [Example 68, (2Z)-2-{[2-(4-fluorophenyl)-1H-indol-3-yl]methylene}-7-hydroxy-1-benzofuran-3(2H)-one]	486 nM		481 nM
COc1ccc2[nH]c(-c3ccccc3)c(C=C3Oc4c(ccc(O)c4O)C3=O)c2c1 [Example 71, 6,7-dihydroxy-2-[(5-methoxy-2-phenyl-1H-indol-3-yl)methylene]-1-benzofuran-3(2H)-one]	439 nM	74.2 nM	
COc1ccc2[nH]cc(CC3Oc4cc(O)cc(O)c4C3=O)c2c1 (stereo not shown) [Example 117, 4,6-dihydroxy-2-[(5-methoxy-1H-indol-3-yl)methyl]-1-benzofuran-3(2H)-one]	8600 nM	1840 nM	
COc1ccc2[nH]c(-c3ccccc3)c(CC3Oc4cc(O)cc(O)c4C3=O)c2c1 (stereo not shown) [Example 118, 4,6-dihydroxy-2-[(5-methoxy-2-phenyl-1H-indol-3-yl)methyl]-1-benzofuran-3(2H)-one]	932 nM	288 nM	
COc1ccc2[nH]c(C)c(CC3Oc4cc(O)cc(O)c4C3=O)c2c1 (stereo not shown) [Example 119, 4,6-dihydroxy-2-[(5-methoxy-2-methyl-1H-indol-3-yl)methyl]-1-benzofuran-3(2H)-one]	> 10000 nM	3830 nM	
COc1ccc2[nH]c(C)c(C=C3Oc4c(O)cccc4C3=O)c2c1 [Example 120, 7-hydroxy-2-[(5-methoxy-2-methyl-1H-indol-3-yl)methylene]-1-benzofuran-3(2H)-one]	10300 nM	1540 nM	
COc1ccc2c(c1)c(C=C1Oc3cccc(O)c3C1=O)c(C)n2C [Example 121, 4-hydroxy-2-[(5-methoxy-1,2-dimethyl-1H-indol-3-yl)methylene]-1-benzofuran-3(2H)-one]	5430 nM	317 nM	
COc1ccc2c(c1)c(C=C1Oc3c(ccc(O)c3O)C1=O)c(C)n2CCCCCl [Example 122, 2-{[1-(4-chlorobutyl)-5-methoxy-2-methyl-1H-indol-3-yl]methylene}-6,7-dihydroxyl-1-benzofuran-3(2H)-one]	1500 nM	137 nM	
COc1ccc2c(c1)c(C=C1Oc3cccc(O)c3C1=O)c(C)n2CCCCCl [Example 123, 2-{[1-(4-chlorobutyl)-5-methoxy-2-methyl-1H-indol-3-yl]methylene}-4-hydroxy-1-benzofuran-3(2H)-one]	> 10000 nM	1220 nM	
COc1ccc2c(c1)c(C=C1Oc3c(ccc(O)c3O)C1=O)c(C)n2CCCCl [Example 124, 2-{[1-(3-chloropropyl)-5-methoxy-2-methyl-1H-indol-3-yl]methylene}-6,7-dihydroxy-1-benzofuran-3(2H)-one]	1220 nM	64.5 nM	
COc1ccc2c(c1)c(C=C1Oc3cccc(O)c3C1=O)c(C)n2CCCCl [Example 125, 2-{[1-(3-chloropropyl)-5-methoxy-2-methyl-1H-indol-3-yl]methylene}-4-hydroxy-1-benzofuran-3(2H)-one]	933 nM	380 nM	
